Measured values as given in US20130280258A1, “PROGNOSTIC, DIAGNOSTIC, AND CANCER THERAPEUTIC USES OF FANCI AND FANCI MODULATING AGENTS” (Miltenyi Biotec GmbH, priority 2007, published 2013).

Tested on: U2OS cells
Assay: Multicolor competition assay (MCA) of DNA damage sensitivity
Assay type: cell-based
Details: 7 days of culture, read-out: concentration resulting in about 50% survival of non-transfected cells
Experimental: U2OS cells were infected with MSCVgfp or MSCVdsRed, which were packaged in 293T by co-transfection with VSVG vector using TransIT-293 (Minis). Without selection, the cells were sorted using the Aria Sorter (BD) for intermediate expression. The gfp cells grew slightly faster than the rfp cells and this was taken into account when calculating the changes in survival due to treatment with DNA damaging agents. siRNA transfections were performed as described above with gfp cells being transfected with a control siRNA (luciferase) and rfp cells with an siRNA of interest. On the third day after transfections, gfp and rfp cells were counted and mixed in 1 to 1 ratio and were left untreated or were treated with IR or MMC. The concentration of Mitomycin C (Sigma) was chosen to result in about 50% survival of non-transfected cells, which was about 70 nM MMC for U2OS cells. After 7 days of culture, all cells were collected and analyzed using Cytomix FC500 Analyzer (Beckman Coulter). […]
Two populations of U20S (osteosarcoma) cells differing only in their color were created by expression of red fluorescent protein (RFP) or green fluorescent protein (GFP). siRNA depletion of the protein of interest was carried out in the […] were transfected with control siRNA. […] After 7 days, cells were harvested and a ratio of red to green cells was determined using flow cytometry. […]

Q: Which IC50 does the source give for CO[C@@]12[C@H](COC(N)=O)C3=C(C(=O)C(C)=C(N)C3=O)N1C[C@@H]1N[C@@H]12 [Mitomycin C] here?
A: ~70 nM
